This passage reports RP-LC retention time results from the METLIN SMRT retention time set (Domingo-Almenara et al. 2019).

Each structure is given as a SMILES string.

This data set is described as follows: gradient 5% acetonitrile 3 min, to 50% in 2 min, to 85% in 15 min, held 3 min, 100 µL/min. The settings on record: column: Zorbax Extend-C18 2.1 x 50 mm; eluents: water / acetonitrile, 0.1% formic acid. The method, boiled down: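 In both positive and negative ionization mode, a quadrupole time-of-flight mass spectrometer coupled to HPLC analyzed pure standards run in mixtures of ~100 molecules. The Zorbax Extend-C18 column (2.1 × 50 mm, 1.8 μm) was operated at 100 μL/min with water and acetonitrile, each containing 0.1% formic acid. The dead volume was 40 μL and the dwell volume 900 μL. Retention time came from adduct peaks that were computationally picked and individually inspected by hand.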
In turn, `N#CCCN1CCN(C2=NC(=O)/C(=C\c3cccs3)S2)CC1` showed an RP-LC retention time of 611 s.
With `Cc1cc(F)ccc1NC(=O)c1cnn2c1CCCC2` the figure was 720 s; with `Cc1cc(C)n2c(Nc3cccc(C(F)(F)F)c3)c(-c3ccc(F)cc3)nc2n1`, 829 s.
As for `Cc1cc(C)cc(-n2ncc3c(N4CCC(C(N)=O)CC4)ncnc32)c1`, the RP-LC retention time was found to be 724 s.
Take `Cc1noc2nc(C)n(CC(=O)NC3CCCC3)c(=O)c12`: the RP-LC retention time worked out at 678 s.
With `Cn1nc(C(=O)N2CCOCC2)c2c1CCN(C(=O)Nc1ccc(F)c(Cl)c1)C2` the figure was 1070 s; with `CCC(CC)C(=O)Nc1nc(-c2ccc3c(c2)NC(=O)C(C)O3)c(C)s1` (centres undefined), 922 s; with `O=C(C1CCOCC1)N1CCC(Oc2nccnc2N2CCOCC2)C1` (centres undefined), 598 s.
Then `CCC(=O)N(C1CCOCC1)C1CCN(S(=O)(=O)c2ccc(Cl)cc2)CC1`, with 886 s; and `O=C1NC2(CCN(C(=O)c3ccc(F)cc3)CC2)Nc2cc(Cl)ccc21`, with 742 s.
The molecule `CCN1CCCCc2cc(C(=O)NC(C)COC)sc21` (centres undefined) displayed an RP-LC retention time of 905 s.
Then `Cc1csc(-c2cn(CC(=O)Nc3ccc(C)c(F)c3)cn2)n1`, with 728 s; and `CCCN(CCC)CCCNC(=O)C1=C(C)C(=O)OC12CCN(Cc1ccccc1)CC2`, with 558 s.
Then `CCOC(=O)c1nc(N(C)c2cc(C)ccc2C)c2ccccc2n1`, with 1010 s; and `CCCn1cnc2cc(CNC(=O)c3cnccn3)ccc21`, with 578 s.
With `COc1c(C(=O)N2CCN(c3ccccc3F)CC2)sc2cccc(F)c12`, the RP-LC retention time worked out at 1100 s.
Turning to `CC(C)CNC(=O)c1ccc(CN2CCN(Cc3ccc(F)cc3)C(=O)C2=O)cc1`, the RP-LC retention time was 732 s.
For the molecule `COc1cc(NC(=O)N2CCN(c3cc(C)nc(N4CCCC4)n3)CC2)cc(OC)c1`, the RP-LC retention time is 676 s.
With `CCNC(=O)C1CCCN(C(=O)Nc2ccc(NC(=O)Nc3ccc(C)c(C)c3)cc2)C1` (centres undefined) the figure was 748 s; with `CC1CN(CC(=O)N2CCN(Cc3ccc4c(c3)OCO4)CC2)c2ccccc2S1` (centres undefined), 723 s; with `CC(C)CNC(=O)N1CC(n2cc(C(=O)N(C)C)nn2)C1`, 609 s.
With `Cc1ccc(NC(=O)Cc2ccc(S(C)(=O)=O)cc2)c(C(=O)c2ccccc2)c1` the figure was 814 s; with `CCC(C)(C)N=C(NC#N)Nc1cccnc1`, 689 s.
As for `CCC(=O)N1CCc2cc(N3CC(C(=O)NCc4ccco4)CC3=O)ccc21` (centres undefined), the RP-LC retention time is 667 s.
Molecule `Cc1ccc(NC(=O)Nc2cccn3nc(C4CC4)nc23)cc1` registered an RP-LC retention time of 912 s.
Then `CC1=NS(=O)(=O)N(C)C=C1C(=O)OCc1c(C)noc1C`, with 776 s.
Molecule `CCCN1CCN(C(=O)C(C)n2nc(C)c3nn(-c4ccccc4)c(-n4cccc4)c3c2=O)CC1` (centres undefined) returned an RP-LC retention time of 692 s.
Turning to `CCOC(=O)c1cnc2c(C)c(Cl)ccc2c1NCCN(C)C`, the RP-LC retention time was found to be 562 s.
With `O=C(c1ccc(F)cc1)N1CCC(n2c(-c3ccco3)nc3cccnc32)C1` (centres undefined) the figure was 689 s; with `Cc1nnc2n1CCN(C(=O)c1nn(C)c3ccccc13)C2`, 605 s.
Regarding `O=C([C@@H]1C[C@H](F)CN1S(=O)(=O)c1ccc(F)cc1)N1CCOCC1`, the RP-LC retention time came out at 664 s.
In the case of `Cc1cc(=O)n(CC(=O)Nc2cc(F)ccc2F)c(-c2ccccc2)n1`, the RP-LC retention time turned out to be 1010 s.
Molecule `CCn1nc(C)c2ccnc(N3CCC(C(=O)N4CCN(c5ccccc5Cl)CC4)CC3)c21` registered an RP-LC retention time of 812 s.
Then `CSc1ccc(-c2noc(Cn3c(=O)n(-c4cccc(C)c4)c(=O)c4sccc43)n2)cc1`, with 1070 s.
